Data: patent US20060100431A1, “Biologically active compounds” (Amura Therapeutics Limited, priority 2002, published 2006)

Target: Wild-type cruzipain (Trypanosoma cruzi, UniProt P25779)
Test: Trypanosoma cruzi cruzipain peptidase activity assay (Ki)
Format: biochemical
Conditions: not given
In short: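 Native cruzipain from T. cruzi Dm28 epimastigotes, 2.5 nM, in 100 mM sodium phosphate pH 6.75 with 1 mM EDTA and 10 mM L-cysteine, 25 °C, DMSO <1%. Rates taken from continuous fluorogenic substrate read; Ki by regression assuming reversible pure-competitive inhibition.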

Wild-type cruzipain, sequence (P25779 whole entry): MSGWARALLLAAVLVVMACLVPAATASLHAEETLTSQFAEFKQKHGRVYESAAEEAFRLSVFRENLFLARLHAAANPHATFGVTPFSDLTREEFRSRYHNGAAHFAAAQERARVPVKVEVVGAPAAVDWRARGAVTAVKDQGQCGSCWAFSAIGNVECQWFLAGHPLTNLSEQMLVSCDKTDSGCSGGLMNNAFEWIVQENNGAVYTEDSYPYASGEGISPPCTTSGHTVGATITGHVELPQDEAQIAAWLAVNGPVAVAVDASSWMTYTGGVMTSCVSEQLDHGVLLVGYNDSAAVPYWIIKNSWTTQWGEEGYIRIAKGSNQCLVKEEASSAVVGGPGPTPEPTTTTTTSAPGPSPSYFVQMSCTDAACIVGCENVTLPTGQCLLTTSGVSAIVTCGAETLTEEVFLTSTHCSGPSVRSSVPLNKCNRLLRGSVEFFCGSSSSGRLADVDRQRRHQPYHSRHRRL

SMILES | Ki
CC(C)C[C@H](NC(=O)c1ccc(C(C)(C)C)cc1)C(=O)N1CC[C@@H]2[C@H]1C(=O)CN2C(=O)c1ccccc1 [Example 1, (3aR,6aS)-N-[(1S)-1-(4-Benzoyl-6-oxo-hexahydro-pyrrolo[3,2-b]pyrrole-1-carbonyl)-3-methyl-butyl]-4-tert-butylbenzamide] | < 5 µM

Same assay, conditions: read-out: Ki, inhibitors of cruzain and cruzipains

Ki | SMILES
< 5 µM | O=C(N[C@@H](Cc1cccc(F)c1)C(=O)N1CC[C@@H]2[C@H]1C(=O)CN2C(=O)c1ccccc1)c1cccc(Br)c1 [Example 342, (3aR,6aS)-N-[(1S)-2-(4-Benzoyl-6-oxo-hexahydro-pyrrolo[3,2-b]pyrrol-1-yl)-1-(3-fluoro-benzyl)-2-oxo-ethyl]-3-bromo-benzamide]
< 5 µM | O=C(N[C@@H](Cc1cc(F)cc(F)c1)C(=O)N1CC[C@@H]2[C@H]1C(=O)CN2C(=O)c1ccccc1)c1cccc(Br)c1 [Example 343, (3aR,6aS)-N-[(1S)-2-(4-Benzoyl-6-oxo-hexahydro-pyrrolo[3,2-b]pyrrol-1-yl)-1-(3,5-difluoro-benzyl)-2-oxo-ethyl]-3-bromo-benzamide]
< 5 µM | O=C(N[C@@H](Cc1ccc(F)cc1)C(=O)N1CC[C@@H]2[C@H]1C(=O)CN2C(=O)c1ccccc1)c1cccc(Br)c1 [Example 344, (3aR,6aS)-N-[(1S)-2-(4-Benzoyl-6-oxo-hexahydro-pyrrolo[3,2-b]pyrrol-1-yl)-1-(4-fluoro-benzyl)-2-oxo-ethyl]-3-bromo-benzamide]

Target: T1, CPB2.8ΔCTE (Leishmania mexicana, UniProt P36400)
T1 construct: Wild-type recombinant CPB without the C-terminal extention (i.e. CPB2.8ΔCTE); Dr. Jeremy Mottram (Wellcome Centre for Molecular Parasitology, University of Glasgow)
T1 sequence (P36400 126-343, stated change not applied): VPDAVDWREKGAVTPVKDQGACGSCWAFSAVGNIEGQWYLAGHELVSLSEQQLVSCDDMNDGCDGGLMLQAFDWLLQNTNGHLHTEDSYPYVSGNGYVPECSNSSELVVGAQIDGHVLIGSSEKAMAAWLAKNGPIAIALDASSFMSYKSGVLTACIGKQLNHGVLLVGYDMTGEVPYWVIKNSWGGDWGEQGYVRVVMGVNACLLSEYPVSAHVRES
Test: Leishmania mexicana cysteine protease B (CPB) peptidase activity assay (Ki)
Format: biochemical
Conditions: Ki, inhibitors of Leismania mexicana CPB protease
Procedure: Unless otherwise stated, all general chemicals and biochemicals were purchased from either the Sigma Chemical Company, Poole, Dorset, U.K or from Fisher Scientific UK, Loughborough, Leicestershire, U.K. Absorbance assays were carried out in flat-bottomed 96-well plates (Spectra; Greiner Bio-One Ltd., Stonehouse, Gloucestershire, U.K.) using a SpectraMax PLUS384 plate reader (Molecular Devices, Crawley, U.K.). Fluorescence high throughput assays were carried out in either 384-well microtitre plates (Corning Costar 3705 plates, Fisher Scientific) or 96-well ‘U’ bottomed Microfluor W1 microtitre plates (Thermo Labsystems, Ashford, Middlesex, U.K.). Fluorescence assays were monitored using a SpectraMax Gemini fluorescence plate reader (Molecular Devices). For substrates employing either a 7-amino-4-methylcoumarin (AMC) or a 7-amino-4-trifluoromethylcoumarin (AFC) fluorophore, assays were monitored at an excitation wavelength of 365 nm and an emission wavelength of 450 nm and the fluorescence plate reader calibrated with AMC. For substrates employing a 3-amino-benzoyl (Abz) fluorophore, assays were monitored at an excitation wavelength of 310 nm and an emission wavelength of 445 nm; the fluorescence plate reader calibrated with 3-amino-benzamide (Fluka). Unless otherwise indicated, all the peptidase substrates were purchased from Bachem UK, St Helens, Merseyside, UK. Substrates utilizing fluorescence resonance energy transfer methodology (i.e. FRET-based substrates) were synthesized at Incenta Limited using published methods (Atherton & Sheppard, Solid Phase Peptide Synthesis, IRL Press, Oxford, U.K, 1989) and employed Abz (2-aminobenzoyl) as the fluorescence donor and 3-nitro-tyrosine [Tyr(NO2)] as the fluorescence quencher (Meldal, M. and Breddam, K., Anal. Biochem, 195, 141-147, 1991). Hydroxyethylpiperazine ethanesulfonate (HEPES), tris-hydroxylmethyl aminomethane (tris) base, bis-tris-propane and all the biological detergents (e.g. CHAPS, zwittergents, etc.) were purchased from CN Biosciences UK, Beeston, Nottinghamshire, U.K. Glycerol was purchased from Amersham Pharmacia Biotech, Little Chalfont, Buckinghamshire, U.K. Stock solutions of substrate or inhibitor were made up to 10 mM in 100% dimethylsulfoxide (DMSO) (Rathburns, Glasgow, U.K.) and diluted as appropriately required. In all cases the DMSO concentration in the assays was maintained at less than 1% (vol./vol.).
Assay protocols were based on literature precedent (Table 4; Barrett, A. J., Rawlings, N. D. and Woessner, J. F., 1998, Handbook of Proteolytic Enzymes, Academic Press, London and references therein) and modified as required to suit local assay protocols. Enzyme was added as required to initiate the reaction and the activity, as judged by the change in fluorescence upon conversion of substrate to product, was monitored over time. All assays were carried out at 25±1° C.
Wild-type recombinant CPB without the C-terminal extention (i.e. CPB2.8ΔCTE; Sanderson, S. J., et. al., Biochem. J., 347, 383-388, 2000) was obtained from Dr. Jeremy Mottram (Wellcome Centre for Molecular Parasitology, The Anderson College, University of Glasgow, Glasgow, U.K.). Activity assays were carried out in 100 mM sodium acetate; pH 5.5 containing 1 mM EDTA; 200 mM NaCl and 10 mM DTT (Alves, L. C., et. al., Mol. Biochem. Parasitol, 116, 1-9, 2001) using 0.25 nM enzyme. […] The rate of conversion of substrate to product was derived from the slope of the increase in fluorescence monitored continuously over time.
The apparent inhibition constant (Ki) for each compound was determined on the basis that inhibition was reversible and occurred by a pure-competitive mechanism. The Ki values were calculated, from the dependence of enzyme activity as a function of inhibitor concentration, by direct regression analysis (Prism v 3.02) using Equation 2 (Cornish-Bowden, A., 1995.). [formula]

SMILES | Ki
CC(C)C[C@H](NC(=O)c1ccc(C(C)(C)C)cc1)C(=O)N1CC[C@@H]2[C@H]1C(=O)CN2C(=O)c1ccccc1 [Example 1, (3aR,6aS)-N-[(1S)-1-(4-Benzoyl-6-oxo-hexahydro-pyrrolo[3,2-b]pyrrole-1-carbonyl)-3-methyl-butyl]-4-tert-butylbenzamide] | < 5 µM
CC(C)C[C@H](NC(=O)c1ccc(C(C)(C)C)cc1)C(=O)N1CC[C@@H]2[C@H]1C(=O)CN2C(=O)Cc1ccccc1 [Example 3, (3aR,6aS)-4-tert-Butyl-N-[(1S)-3-methyl-1-(6-oxo-4-phenylacetyl-hexahydro-pyrrolo[3,2-b]pyrrole-1-carbonyl)-butyl]-benzamide] | < 5 µM
CC(C)C[C@H](NC(=O)c1ccc(N(C)C)cc1)C(=O)N1CC[C@@H]2[C@H]1C(=O)CN2C(=O)c1ccc(C(C)(C)C)cc1 [Example 75, (3aR,6aS)-N-{(1S)-1-[4-(4-tert-Butyl-benzoyl)-6-oxo-hexahydro-pyrrolo[3,2-b]pyrrole-1-carbonyl]-3-methyl-butyl}-4-dimethylamino-benzamide] | < 5 µM
COC(=O)c1ccc(C(=O)N2CC(=O)[C@@H]3[C@H]2CCN3C(=O)[C@H](CC(C)C)NC(=O)c2ccc(N(C)C)cc2)cc1 [Example 76, (3aS,6aR)-4-{4-[(2S)-2-(4-Dimethylamino-benzoylamino)-4-methyl-pentanoyl]-3-oxo-hexahydro-pyrrolo[3,2-b]pyrrole-1-carbonyl}-benzoic acid methyl ester] | < 5 µM
COc1cc(OC)cc(C(=O)N2CC(=O)[C@@H]3[C@H]2CCN3C(=O)[C@H](CC(C)C)NC(=O)c2ccc(N(C)C)cc2)c1 [Example 112, (3aR,6aS)-N-{(1S)-1-[4-(3,5-Dimethoxy-benzoyl)-6-oxo-hexahydropyrrolo[3,2-b]pyrrole-1-carbonyl]-3-methyl-butyl}-4-dimethylamino-benzamide] | < 5 µM
CC(C)C[C@H](NC(=O)c1ccc(C(C)(C)C)cc1)C(=O)N1CC[C@@H]2[C@H]1C(=O)CN2S(=O)(=O)c1ccccc1 [Example 119, (3aR,6aS)-N-[(1S)-1-(4-Benzenesulfonyl-6-oxo-hexahydro-pyrrolo[3,2-b]pyrrole-1-carbonyl)-3-methyl-butyl]-4-tert-butyl-benzamide] | < 5 µM
CC(C)C[C@H](NC(=O)c1ccc(-c2cccs2)cc1)C(=O)N1CC[C@@H]2[C@H]1C(=O)CN2S(=O)(=O)c1ccccc1 [Example 120, (3aR,6aS)-N-[(1S)-1-(4-Benzenesulfonyl-6-oxo-hexahydropyrrolo [3,2-b]pyrrole-1-carbonyl)-3-methyl-butyl]-4-thiophen-2-yl-benzamide] | < 5 µM
CC(C)C[C@H](NC(=O)c1ccc(N(C)C)cc1)C(=O)N1CC[C@@H]2[C@H]1C(=O)CN2C(=O)[C@H](CC(N)=O)NC(=O)OCc1ccccc1 [Example 148, (3aS,6aR)-((1S)-1-Carbamoylmethyl-2-{4-[(2S)-2-(4-dimethylaminobenzoylamino)-4-methyl-pentanoyl]-3-oxo-hexahydro-pyrrolo[3,2-b]pyrrol-1-yl}-2-oxo-ethyl)-carbamic acid benzyl ester] | < 5 µM
CC(C)C[C@H](NC(=O)c1cccc(CN)c1)C(=O)N1CC[C@@H]2[C@H]1C(=O)CN2C(=O)[C@H](C)c1ccccc1 [Example 176, (3aR,6aS)-3-Aminomethyl-N-{(1S)-3-methyl-1-[6-oxo-4-((2R)-2-phenyl-propionyl)-hexahydro-pyrrolo[3,2-b]pyrrole-1-carbonyl]-butyl}-benzamide] | < 5 µM
CC(C)C[C@H](NC(=O)c1cccc(CN)c1)C(=O)N1CC[C@@H]2[C@H]1C(=O)CN2C(=O)[C@@H](C)c1ccccc1 [Example 177, (3aR,6aS)-3-Aminomethyl-N-{(1S)-3-methyl-1-[6-oxo-4-((2S)-2-phenyl-propionyl)-hexahydro-pyrrolo[3,2-b]pyrrole-1-carbonyl]-butyl}-benzamide] | < 5 µM
CC(=O)N(C)CC(=O)N1CC(=O)[C@@H]2[C@H]1CCN2C(=O)[C@H](CC(C)C)NC(=O)c1ccc(N(C)C)cc1 [Example 201, (3aR,6aS)-N-((1S)-1-{4-[2-(Acetyl-methyl-amino)-acetyl]-6-oxo-hexahydro-pyrrolo[3,2-b]pyrrole-1-carbonyl}-3-methyl-butyl)-4-dimethylamino-benzamide] | < 5 µM
CC(C)CC[C@H](N)C(=O)N1CC(=O)[C@@H]2[C@H]1CCN2C(=O)[C@H](CC(C)C)NC(=O)c1ccc(N(C)C)cc1 [Example 213, (3aR,6aS)-N-{(1S)-1-[4-((2S)-2-Amino-5-methyl-hexanoyl)-6-oxo-hexahydro-pyrrolo[3,2-b]pyrrole-1-carbonyl]-3-methyl-butyl}-4-dimethylamino-benzamide] | < 5 µM
CC(C)C[C@H](NC(=O)c1ccc(N(C)C)cc1)C(=O)N1CC[C@@H]2[C@H]1C(=O)CN2C(=O)[C@@H](N)CC1CCCCC1 [Example 215, (3aR,6aS)-N-{(1S)-1-[4-((2S)-2-Amino-3-cyclohexyl-propionyl)-6-oxo-hexahydro-pyrrolo[3,2-b]pyrrole-1-carbonyl]-3-methyl-butyl}-4-dimethylamino-benzamide] | < 5 µM
CCCC(C)C(=O)N1CC(=O)[C@@H]2[C@H]1CCN2C(=O)[C@H](CC(C)C)NC(=O)c1ccc(N(C)C)cc1 (stereo partly drawn) [Example 230, (3aR,6aS)-4-Dimethylamino-N-{(1S)-3-methyl-1-[4-(2-methyl-pentanoyl)-6-oxo-hexahydro-pyrrolo[3,2-b]pyrrole-1-carbonyl]-butyl}-benzamide] | < 5 µM
CCCCCC(=O)N1CC(=O)[C@@H]2[C@H]1CCN2C(=O)[C@H](CC(C)C)NC(=O)c1ccc(N(C)C)cc1 [Example 234, (3aR,6aS)-4-Dimethylamino-N-[(1S)-1-(4-hexanoyl-6-oxo-hexahydro-pyrrolo[3,2-b]pyrrole-1-carbonyl)-3-methyl-butyl]-benzamide] | < 5 µM
Cc1ccc(C[C@H](NC(=O)c2ccc(C(C)(C)C)cc2)C(=O)N2CC[C@@H]3[C@H]2C(=O)CN3C(=O)Cc2ccccc2)cc1 [Example 360, (3aR,6aS)-4-tert-Butyl-N-[(1S)-1-(4-methyl-benzyl)-2-oxo-2-(6-oxo-4-phenylacetyl-hexahydro-pyrrolo[3,2-b]pyrrole-1-yl)-ethyl]-benzamide] | < 5 µM
